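Each compound was tested at five concentrations against cells in 96-well plates for 48 hours. Definition used: TGI = concentration required for complete inhibition of growth.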
Legend:
Test in all cases: NCI anticancer screen, dose series, 48 h
[1] = tested on: OVCAR-8 ovarian
[2] = tested on: KM20L2 colon
[3] = tested on: KM12 colon
[4] = tested on: UACC-257 melanoma
[5] = tested on: A498 renal
[6] = tested on: U251 CNS
[7] = tested on: NCI-H522 lung
[8] = tested on: A549 NSCLC
[9] = tested on: CAKI-1 renal
[10] = tested on: UO-31 renal
[11] = tested on: SK-MEL-2 melanoma
[12] = tested on: HCT-116 colon
[13] = tested on: SNB-78 CNS
[14] = tested on: SF-295 CNS
[15] = tested on: NCI-H460 lung
[16] = tested on: TK-10 renal
[17] = tested on: HCT-15 colon
[18] = tested on: OVCAR-4 ovarian
[19] = tested on: UACC-62 melanoma
[20] = tested on: SW-620 colon
[21] = tested on: M14 melanoma
[22] = tested on: HT29 colon
[23] = tested on: SK-MEL-28 melanoma
[24] = tested on: LXFL 529 NSCLC
[25] = tested on: SNB-19 CNS
[26] = tested on: HOP-92 NSCLC
[27] = tested on: EKVX NSCLC
[28] = tested on: HOP-18 NSCLC
[29] = tested on: IGROV1 ovarian
[30] = tested on: NCI-H226 lung
[31] = tested on: HL-60(TB) leukemia
[32] = tested on: HOP-62 NSCLC
[33] = tested on: COLO 205 colon
[34] = tested on: DLD-1 colon
[35] = tested on: SNB-75 CNS
[36] = tested on: ACHN renal
[37] = tested on: SF-268 CNS
[38] = tested on: LOX IMVI melanoma
[39] = tested on: MALME-3M melanoma
[40] = tested on: SK-OV-3 ovarian
[41] = tested on: HCC-2998 colon
[42] = tested on: K-562 leukemia
[43] = tested on: DMS 273 small cell lung
[44] = tested on: CCRF-CEM leukemia
[45] = tested on: M19-MEL melanoma
[46] = tested on: SN12C renal
[47] = tested on: OVCAR-5 ovarian
[48] = tested on: SK-MEL-5 melanoma
[49] = tested on: RXF 393 renal
[50] = tested on: NCI-H23 lung
[51] = tested on: OVCAR-3 ovarian
[52] = tested on: 786-0 renal
[53] = tested on: DMS 114 small cell lung
[54] = tested on: RXF-631 renal
[55] = tested on: SR leukemia
[56] = tested on: MOLT-4 leukemia
[57] = tested on: XF 498 CNS
[58] = tested on: RPMI-8226 leukemia
[59] = tested on: SF-539 CNS

`CCCCCCCCCCCCCCCCOC(=O)C(C(=O)OCCCCCCCCCCCCCCCC)[N+](C)(C)CCOC(C)=O` gave a TGI [1] of 37.3 µM, a TGI [2] of 50 µM and a TGI [3] of 33.8 µM. For the same compound, the TGI [4] was 35 µM, the TGI [5] was 57.5 µM and the TGI [6] was 27 µM. It also gave a TGI [7] of 23.3 µM, a TGI [8] of 42.6 µM and a TGI [9] of 30.9 µM. The TGI [10] was 34.2 µM, the TGI [11] was 36.8 µM and the TGI [12] was 33.1 µM. It also gave a TGI [13] of 45.7 µM, a TGI [14] of 35.4 µM and a TGI [15] of 80.6 µM. The TGI [16] was 26.5 µM, the TGI [17] was 46.1 µM and the TGI [18] was 32.4 µM. The TGI [19] was 45.7 µM, the TGI [20] was 52.4 µM and the TGI [21] was 38.5 µM. The TGI [22] was 25.9 µM, the TGI [23] was 40.8 µM and the TGI [24] was 37.2 µM. For the same compound, the TGI [25] was 43.8 µM, the TGI [26] was 18.5 µM and the TGI [27] was 43.7 µM. For the same compound, the TGI [28] was 30.3 µM, the TGI [29] was 13.7 µM and the TGI [30] was 42.1 µM. It also gave a TGI [31] of 6.12 µM, a TGI [32] of 25.8 µM and a TGI [33] of 36 µM. For the same compound, the TGI [34] was 31.3 µM, the TGI [35] was 35.6 µM and the TGI [36] was 34.9 µM. It also gave a TGI [37] of 44.1 µM, a TGI [38] of 44.8 µM and a TGI [39] of 41.2 µM. For the same compound, the TGI [40] was 34.8 µM, the TGI [41] was 30.7 µM and the TGI [42] was 41 µM. The TGI [43] was 25 µM, the TGI [44] was 28.6 µM and the TGI [45] was 30.4 µM. The TGI [46] was 35.3 µM, the TGI [47] was 35.1 µM and the TGI [48] was 35.1 µM. It also gave a TGI [49] of 8.98 µM, a TGI [50] of 30.3 µM and a TGI [51] of 32.6 µM. It also gave a TGI [52] of 32.7 µM, a TGI [53] of 41.8 µM and a TGI [54] of 30.5 µM.
Compound `O=C1CCCCC/C=C2/CC[C@H](Sc3ccccc3)[C@@H]12` has a TGI [1] greater than 100 µM, a TGI [2] greater than 100 µM and a TGI [3] greater than 100 µM. It also gave a TGI [4] greater than 100 µM, a TGI [6] greater than 100 µM and a TGI [8] greater than 100 µM. It also gave a TGI [10] greater than 100 µM, a TGI [11] greater than 100 µM and a TGI [55] greater than 100 µM. It also gave a TGI [12] greater than 100 µM, a TGI [13] greater than 100 µM and a TGI [14] greater than 100 µM. It also gave a TGI [15] greater than 100 µM, a TGI [16] greater than 100 µM and a TGI [17] greater than 100 µM. For the same compound, the TGI [18] was greater than 100 µM, the TGI [19] was greater than 100 µM and the TGI [20] was greater than 100 µM. It also gave a TGI [21] greater than 100 µM, a TGI [22] greater than 100 µM and a TGI [23] greater than 100 µM. For the same compound, the TGI [24] was greater than 100 µM, the TGI [25] was greater than 100 µM and the TGI [27] was greater than 100 µM. The TGI [28] was greater than 100 µM, the TGI [30] was greater than 100 µM and the TGI [31] was greater than 100 µM. It also gave a TGI [32] greater than 100 µM, a TGI [33] greater than 100 µM and a TGI [35] greater than 100 µM. For the same compound, the TGI [36] was greater than 100 µM, the TGI [37] was greater than 100 µM and the TGI [38] was greater than 100 µM. It also gave a TGI [39] greater than 100 µM, a TGI [40] greater than 100 µM and a TGI [56] greater than 100 µM. It also gave a TGI [42] greater than 100 µM, a TGI [43] greater than 100 µM and a TGI [44] greater than 100 µM. The TGI [57] was […], the TGI [45] was greater than 100 µM and the TGI [46] was greater than 100 µM. The TGI [48] was greater than 100 µM, the TGI [58] was greater than 100 µM and the TGI [49] was greater than 100 µM. For the same compound, the TGI [50] was greater than 100 µM, the TGI [52] was greater than 100 µM and the TGI [53] was greater than 100 µM.
`CCSC1(SCC)CCN(C=NC(C)(C)C)C1` showed a TGI [1] greater than 100 µM, a TGI [2] greater than 100 µM and a TGI [3] greater than 100 µM. It also gave a TGI [4] greater than 100 µM, a TGI [5] greater than 100 µM and a TGI [6] greater than 100 µM. For the same compound, the TGI [7] was greater than 100 µM, the TGI [8] was greater than 100 µM and the TGI [9] was greater than 100 µM. It also gave a TGI [10] greater than 100 µM, a TGI [11] greater than 100 µM and a TGI [55] greater than 100 µM. For the same compound, the TGI [12] was greater than 100 µM, the TGI [13] was greater than 100 µM and the TGI [14] was greater than 100 µM. The TGI [15] was greater than 100 µM, the TGI [16] was greater than 100 µM and the TGI [17] was greater than 100 µM. For the same compound, the TGI [18] was greater than 100 µM, the TGI [19] was greater than 100 µM and the TGI [20] was 53.2 µM. The TGI [21] was greater than 100 µM, the TGI [22] was greater than 100 µM and the TGI [23] was greater than 100 µM. For the same compound, the TGI [24] was greater than 100 µM, the TGI [25] was greater than 100 µM and the TGI [27] was greater than 100 µM. The TGI [59] was greater than 100 µM, the TGI [28] was greater than 100 µM and the TGI [29] was greater than 100 µM. The TGI [30] was greater than 100 µM, the TGI [31] was greater than 100 µM and the TGI [32] was greater than 100 µM. It also gave a TGI [33] greater than 100 µM, a TGI [34] greater than 100 µM and a TGI [35] greater than 100 µM. The TGI [36] was greater than 100 µM, the TGI [37] was greater than 100 µM and the TGI [38] was greater than 100 µM. The TGI [39] was greater than 100 µM, the TGI [40] was greater than 100 µM and the TGI [41] was greater than 100 µM. The TGI [56] was greater than 100 µM, the TGI [42] was greater than 100 µM and the TGI [43] was greater than 100 µM. It also gave a TGI [44] greater than 100 µM, a TGI [57] greater than 100 µM and a TGI [45] greater than 100 µM. For the same compound, the TGI [46] was greater than 100 µM, the TGI [47] was greater than 100 µM and the TGI [48] was greater than 100 µM. The TGI [49] was greater than 100 µM, the TGI [50] was greater than 100 µM and the TGI [51] was greater than 100 µM. For the same compound, the TGI [52] was greater than 100 µM, the TGI [53] was greater than 100 µM and the TGI [54] was greater than 100 µM.
`OC1CN(OC/C=C/c2ccccc2)CC(O)C1O` (stereo not given) was tested, and the TGI [1] was greater than 100 µM, the TGI [2] was greater than 100 µM and the TGI [3] was greater than 100 µM. The TGI [4] was greater than 100 µM, the TGI [5] was greater than 100 µM and the TGI [6] was greater than 100 µM. It also gave a TGI [8] greater than 100 µM, a TGI [9] greater than 100 µM and a TGI [10] greater than 100 µM. It also gave a TGI [11] greater than 100 µM, a TGI [12] greater than 100 µM and a TGI [13] greater than 100 µM. For the same compound, the TGI [14] was greater than 100 µM, the TGI [15] was greater than 100 µM and the TGI [16] was greater than 100 µM. It also gave a TGI [17] greater than 100 µM, a TGI [18] greater than 100 µM and a TGI [19] greater than 100 µM. It also gave a TGI [20] greater than 100 µM, a TGI [21] greater than 100 µM and a TGI [22] greater than 100 µM. For the same compound, the TGI [23] was greater than 100 µM, the TGI [24] was greater than 100 µM and the TGI [25] was greater than 100 µM. The TGI [26] was greater than 100 µM, the TGI [27] was greater than 100 µM and the TGI [59] was greater than 100 µM. For the same compound, the TGI [28] was greater than 100 µM, the TGI [29] was greater than 100 µM and the TGI [30] was greater than 100 µM. The TGI [31] was greater than 100 µM, the TGI [32] was greater than 100 µM and the TGI [33] was greater than 100 µM. The TGI [34] was greater than 100 µM, the TGI [35] was greater than 100 µM and the TGI [36] was greater than 100 µM. It also gave a TGI [37] greater than 100 µM, a TGI [38] greater than 100 µM and a TGI [39] greater than 100 µM. It also gave a TGI [40] greater than 100 µM, a TGI [41] greater than 100 µM and a TGI [56] greater than 100 µM. For the same compound, the TGI [42] was greater than 100 µM, the TGI [43] was greater than 100 µM and the TGI [44] was greater than 100 µM. For the same compound, the TGI [57] was greater than 100 µM, the TGI [45] was greater than 100 µM and the TGI [46] was greater than 100 µM. The TGI [47] was greater than 100 µM, the TGI [48] was greater than 100 µM and the TGI [58] was greater than 100 µM. For the same compound, the TGI [49] was greater than 100 µM, the TGI [50] was greater than 100 µM and the TGI [51] was greater than 100 µM. The TGI [52] was 77 µM and the TGI [53] was greater than 100 µM.
